From ChEMBL document CHEMBL4396933, “Design, synthesis and biological evaluation of 3,5-dimethylisoxazole and pyridone derivatives as BRD4 inhibitors” (Bioorg Med Chem Lett, 2019)

What was measured:
[1] = molecular target: T1, Bromodomain-containing protein 4 (Homo sapiens, UniProt O60885); experiment: Inhibition of BRD4 (unknown origin) at 1 uM relative to control
[2] = test system: MV4-11; experiment: Antiproliferative activity against human MV4-11 cells assessed as reduction in cell viability incubated for 72 hrs by CellTiter-Glo luminescent cell viability assay; assay type: functional, cell-based; details: MV4-11, 72 h
[3] = test system: DU-145; experiment: Antiproliferative activity against human DU145 cells; assay type: functional, cell-based
[4] = test system: SW480; experiment: Antiproliferative activity against human SW480 cells; assay type: functional, cell-based
[5] = test system: BT-474; experiment: Antiproliferative activity against human BT474 cells; assay type: functional, cell-based
[6] = test system: HCT-116; experiment: Antiproliferative activity against human HCT116 cells; assay type: functional, cell-based
[7] = test system: CAPAN-1; experiment: Antiproliferative activity against human Capan1 cells; assay type: functional, cell-based
[8] = molecular target: T1, Bromodomain-containing protein 4; experiment: Inhibition of BRD4 bromodomain 1/2 (unknown origin) by alphascreen assay
[9] = test system: MV4-11; experiment: Induction of cell cycle arrest in human MV4-11 cells assessed as increase in accumulation at G0/G1 phase incubated for 48 hrs by PI staining based flow cytometric analysis; assay type: functional
[10] = test system: L02; experiment: Cytotoxicity against human LO2 cells at 0.5 to 40 uM incubated for 72 hrs by MTT assay; assay type: cell-based; details: l02, 72 h
[11] = molecular target: T1, Bromodomain-containing protein 4; experiment: Inhibition of BRD4 in human MV4-11 cells assessed as downregulation of c-Myc protein expression incubated for 48 hrs by Western blot method; assay type: cell-based

Row | SMILES | inhibition [1] | IC50 [2] | IC50 [8] | also measured
1 | COc1ccc(Nc2nn(Cc3ccc(C)cc3)c3cc(-c4c(C)noc4C)ccc23)cc1 | < 20% | 11.9 µM |  | 
2 | Cc1sc2c(c1C)C(c1ccc(Cl)cc1)=N[C@@H](CC(=O)OC(C)(C)C)c1nnc(C)n1-2 |  | 0.06 to 0.09 µM |  | IC50 [3]: 200 nM; IC50 [4]: 14.1 µM; IC50 [5]: 1.7 µM; IC50 [6]: 400 nM; IC50 [7]: 0.8 µM
3 | Cc1ccc(Cn2nc(Nc3ccc(F)cc3)c3ccc(-c4c(C)noc4C)cc32)cc1 | < 20% |  |  | 
4 | COc1ccc(Cn2nc(Nc3cccc(C(C)C)c3)c3ccc(-c4c(C)noc4C)cc32)cc1 | < 20% | 8.1 µM |  | 
5 | CNc1cc(-c2ccc3cnn(Cc4ccc(OC)cc4)c3c2)cn(C)c1=O |  | 2.7 µM | 1600 nM | 
6 | Cc1ccc(Cn2nc(Nc3ccc(C(F)(F)F)cc3)c3ccc(-c4c(C)noc4C)cc32)cc1 | < 20% |  |  | 
7 | CNc1cc(-c2ccc3cnn(Cc4cc(OC)cc(OC)c4)c3c2)cn(C)c1=O |  | 0.19 to 0.2 µM | 550 nM | IC50 [3]: 2600 nM; IC50 [4]: 7.4 µM; IC50 [5]: 8.6 µM; IC50 [6]: 2900 nM; IC50 [7]: 3.8 µM
8 | CNc1cc(-c2ccc3cnn(Cc4ccc(OC)c(F)c4)c3c2)cn(C)c1=O |  | 4.98 µM | 1400 nM | 
9 | Cc1noc(C)c1-c1ccc2c(Nc3ccc(F)cc3)nn(C3CCCCO3)c2c1 (centres undefined) | < 20% | 9.9 µM |  | 
10 | COc1cc(Nc2nn(C3CCCCO3)c3cc(-c4c(C)noc4C)ccc23)ccc1F (centres undefined) | < 20% | 9.3 µM |  | 
11 | COc1ccc(CN2CC(c3ccc(O)cc3)c3cnc(-c4c(C)noc4C)nc32)cc1 (centres undefined) | < 20% |  |  | 
12 | Cc1noc(C)c1-c1ccc2c(Nc3ccc(Cl)cc3)nn(C3CCCCO3)c2c1 (centres undefined) | < 20% | 7.4 µM |  | 
13 | CCNc1cc(-c2ccc3cnn(Cc4cc(OC)cc(OC)c4)c3c2)cn(C)c1=O |  | 2.59 µM | 1810 nM | 
14 | COc1ccc(C)c(C2CN(Cc3ccc(F)cc3)c3nc(-c4c(C)noc4C)ncc32)c1 (centres undefined) | < 20% |  |  | 
15 | CNc1cc(-c2ccc3cnn(Cc4ccc(C(F)(F)F)cc4)c3c2)cn(C)c1=O |  | 4.37 µM | 2400 nM | 
16 | Cc1noc(C)c1-c1ccc2c(Nc3ccc(F)cc3)n[nH]c2c1 | < 20% | 7.8 µM |  | 

Row | SMILES | inhibition [1] | IC50 [2] | IC50 [8] | also measured
17 | COc1cc(F)ccc1Nc1nn(C2CCCCO2)c2cc(-c3c(C)noc3C)ccc12 (centres undefined) | < 20% | 8.5 µM |  | 
18 | Cc1noc(C)c1-c1ccc(-n2ncc3ccc(-c4c(C)noc4C)cc32)c(Cl)c1 | 33% | 2.8 µM |  | 
19 | COc1cc2cnn(Cc3ccc(F)cc3)c2cc1-c1c(C)noc1C | 45% | 1.9 µM |  | 
20 | CNc1cc(-c2ccc3cnn(Cc4ccc(F)c([N+](=O)[O-])c4)c3c2)cn(C)c1=O |  | 0.13 µM | 800 nM | IC50 [3]: 3400 nM; IC50 [4]: 10.1 µM; IC50 [5]: 6.5 µM; IC50 [6]: 2600 nM; IC50 [7]: 4 µM
21 | COc1cc(F)ccc1Nc1nn(C2CCCCO2)c2ccc(-c3c(C)noc3C)cc12 (centres undefined) | < 20% | 17.5 µM |  | 
22 | COc1ccc(Cn2nc(Nc3ccc(F)cc3)c3ccc(-c4c(C)noc4C)cc32)cc1 | < 20% | 9.1 µM |  | 
23 | CNc1cc(-c2ccc3cnn(CC4CCCCC4)c3c2)cn(C)c1=O |  | 2.69 µM | 1810 nM | 
24 | Cc1noc(C)c1-c1ccc2c(c1)c(Nc1ccc(F)cc1)nn2C1CCCCO1 (centres undefined) | < 20% |  |  | 
25 | CCOC(=O)Cn1ncc2ccc(-c3cc(NC)c(=O)n(C)c3)cc21 |  | 8.77 µM | 1900 nM | 
26 | CNc1cc(-c2ccc3cnn(CC4CC4)c3c2)cn(C)c1=O |  | 3.45 µM | 1960 nM | 
27 | Cc1ccc(Cn2nc(Nc3ccc(C#N)cc3)c3ccc(-c4c(C)noc4C)cc32)cc1 | < 20% | 5.8 µM |  | 
28 | CNc1cc(-c2ccc3cnn(Cc4ccc(F)c(F)c4)c3c2)cn(C)c1=O |  | 0.32 µM | 860 nM | IC50 [3]: 4800 nM; Activity [9]: Dose-dependent effect; IC50 [4]: 8.4 µM; IC50 [5]: 8.8 µM; Activity [10]: Non-Toxic; inhibition [11]: Dose-dependent effect; IC50 [6]: 3000 nM; IC50 [7]: 3.7 µM
29 | CCNc1cc(-c2ccc3cnn(Cc4ccc(F)cc4)c3c2)cn(C)c1=O |  | 5.65 µM | 2250 nM | 
30 | CNc1cc(-c2ccc3cnn(Cc4ccc(C)cc4)c3c2)cn(C)c1=O |  | 3.28 µM | 1600 nM | 
31 | CNc1cc(-c2ccc3cnn(Cc4ccc(F)cc4)c3c2)cn(C)c1=O |  | 2.39 µM | 1400 nM | 
